Laboratory results as given in patent US20260191191A1, “METHOD FOR INACTIVATING ENVELOPED VIRUSES” (Merck Patent GmbH, priority 2022, published 2026).
“Also recorded” adds a separate entry of the source. Like-named read-outs stand apart in the source and are kept apart here.

Tests used:
[1] = system: Bovine viral diarrheal virus (BVDV); format: cell-based
[2] = system: Xenotropic murine leukemia virus (XMuLV); format: cell-based
[3] = Critical micelle concentration (CMC) determination by static surface tension
[4] = system: Pseudorabies virus (PRV); format: cell-based; conditions: CHO clarified harvest, 15° C., within 5 min
[5] = system: Fresh human whole blood

C11-C15 secondary alcohol ethoxylate
BVDV inactivation LRV [1]: ≥ 4.0
SAE inactivation efficacy higher than Triton X-100 by [2]: ~ 1.0 log
XMuLV inactivation efficacy compared with Triton X-100 [2]: slightly higher efficacy than Triton™ X-100; also recorded: comparable inactivation with Triton™ X-100; also recorded: lower than that achieved with 1.0% Triton™ X-100, until a longer incubation time has elapsed; also recorded: comparable to that achieved with Triton™ X-100; also recorded: the same virus inactivation efficacy as Triton™ X-100
XMuLV inactivation efficiency compared with Triton X-100 [2]: slightly higher than that achieved with Triton™ X-100 detergent
time in which most XMuLV inactivation occurred [2]: ≤ 5 min
critical micelle concentration (CMC) [3]: 49 mg/L
PRV inactivation LRV ([4]; 0.5% detergent): ~ 6.5
PRV inactivation LRV ([4]; 1.0% detergent): ≥ 5.0
hemolysis compared with Triton X-100 [5]: comparable to Triton™ X-100
